Active and inactive are the calls of the source. The calls are words filed in the database; no cut-off is given here.
Key:
SARS-CoV-2 [1] = test: Antiviral activity against SARS-CoV-2 Delta (B.1.617.2) infected in human A549-hACE2-TMPRSS2 cells assessed as reduction in viral replication pre-incubated with compound followed by viral infection measured after 48 hrs by ELISA assay; type: functional, organism-based; details: Severe acute respiratory syndrome coronavirus 2, Delta (B.1.617.2)
SARS-CoV-2 [2] = test: Antiviral activity against SARS-CoV-2 WA1 infected in human A549-hACE2-TMPRSS2 cells assessed as reduction in viral replication pre-incubated with compound followed by viral infection measured after 72 hrs by ELISA assay; type: functional, organism-based; details: Severe acute respiratory syndrome coronavirus 2, WA1, A549-hACE2-TMPRSS2
[3] = Cytotoxicity against human MT4 cells assessed as reduction in cell growth measured after 5 days by CellTiter-Glo assay; type: toxicity, cell-based; details: MT4 cells, time 5 day
SARS-CoV-2 [4] = test: Antiviral activity against Nluc-fused SARS-CoV-2 infected in human A549-ACE2 cells assessed as reduction in cell viability incubated for 2 days by Nano-Glo reagent based analysis; type: functional, organism-based; details: Severe acute respiratory syndrome coronavirus 2, A549-ACE2, 48 h
[5] = Cytotoxicity against human A549-ACE2 cells assessed as reduction in cell growth measured after 48 hrs by CellTiter-Glo assay; type: toxicity, cell-based; details: for CC50 at 48 h: A549-ACE2 cells
SARS-CoV-2 [6] = test: Antiviral activity against […]-fused SARS-CoV-2 infected in human NHBE-T cells assessed as reduction in cell viability incubated for 1 day by Nano-Glo reagent based analysis; type: functional, organism-based; details: Severe acute respiratory syndrome coronavirus 2, NHBE-T, 24 h
[7] = Cytotoxicity against human NHBE-T cells assessed as reduction in cell growth measured after 5 days by CellTiter-Glo assay; type: toxicity, cell-based; details: NHBE-T cells, time 5 day
SARS-CoV-2 [8] = test: Antiviral activity against SARS-CoV-2 Omicron BA.1 infected in human A549-hACE2-TMPRSS2 cells assessed as reduction in viral replication pre-incubated with compound followed by viral infection measured after 72 hrs by ELISA assay; type: functional, organism-based; details: Severe acute respiratory syndrome coronavirus 2, Omicron BA.1, A549-hACE2-TMPRSS2
SARS-CoV-2 [9] = test: Antiviral activity against SARS-CoV-2 Omicron BA.2 infected in human A549-hACE2-TMPRSS2 cells assessed as reduction in viral replication pre-incubated with compound followed by viral infection measured after 72 hrs by ELISA assay; type: functional, organism-based; details: Severe acute respiratory syndrome coronavirus 2, Omicron BA.2, A549-hACE2-TMPRSS2
SARS-CoV-2 [10] = test: Antiviral activity against SARS-CoV-2 Omicron BA.2.12.1 infected in human A549-hACE2-TMPRSS2 cells assessed as reduction in viral replication pre-incubated with compound followed by viral infection measured after 72 hrs by ELISA assay; type: functional, organism-based; details: Severe acute respiratory syndrome coronavirus 2, Omicron BA.2.12.1, A549-hACE2-TMPRSS2
SARS-CoV-2 [11] = test: Antiviral activity against SARS-CoV-2 Omicron BA.4 infected in human A549-hACE2-TMPRSS2 cells assessed as reduction in viral replication pre-incubated with compound followed by viral infection measured after 72 hrs by ELISA assay; type: functional, organism-based; details: Severe acute respiratory syndrome coronavirus 2, Omicron BA.4, A549-hACE2-TMPRSS2
SARS-CoV-2 [12] = test: Antiviral activity against SARS-CoV-2 Omicron BA.5 infected in human A549-hACE2-TMPRSS2 cells assessed as reduction in viral replication pre-incubated with compound followed by viral infection measured after 72 hrs by ELISA assay; type: functional, organism-based; details: Severe acute respiratory syndrome coronavirus 2, Omicron BA.5, A549-hACE2-TMPRSS2
SARS-CoV-2 [13] = test: Antiviral activity against SARS-CoV-2 Omicron BA.2.75 infected in human A549-hACE2-TMPRSS2 cells assessed as reduction in viral replication pre-incubated with compound followed by viral infection measured after 72 hrs by ELISA assay; type: functional, organism-based; details: Severe acute respiratory syndrome coronavirus 2, Omicron BA.2.75, A549-hACE2-TMPRSS2
SARS-CoV-2 [14] = test: Antiviral activity against SARS-CoV-2 Omicron BA.4.6 infected in human A549-hACE2-TMPRSS2 cells assessed as reduction in viral replication pre-incubated with compound followed by viral infection measured after 72 hrs by ELISA assay; type: functional, organism-based; details: Severe acute respiratory syndrome coronavirus 2, Omicron BA.4.6, A549-hACE2-TMPRSS2
SARS-CoV-2 [15] = test: Antiviral activity against SARS-CoV-2 Omicron BF.5 infected in human A549-hACE2-TMPRSS2 cells assessed as reduction in viral replication pre-incubated with compound followed by viral infection measured after 72 hrs by ELISA assay; type: functional, organism-based; details: Severe acute respiratory syndrome coronavirus 2, Omicron BF.5, A549-hACE2-TMPRSS2
SARS-CoV-2 [16] = test: Antiviral activity against SARS-CoV-2 Omicron XBB infected in human A549-hACE2-TMPRSS2 cells assessed as reduction in viral replication pre-incubated with compound followed by viral infection measured after 72 hrs by ELISA assay; type: functional, organism-based; details: Severe acute respiratory syndrome coronavirus 2, Omicron XBB
SARS-CoV-2 [17] = test: Antiviral activity against SARS-CoV-2 Omicron BQ1.1 infected in human A549-hACE2-TMPRSS2 cells assessed as reduction in viral replication pre-incubated with compound followed by viral infection measured after 72 hrs by ELISA assay; type: functional, organism-based; details: Severe acute respiratory syndrome coronavirus 2, Omicron BQ1.1, A549-hACE2-TMPRSS2
SARS-CoV-2 [18] = test: Antiviral activity against SARS-CoV-2 Omicron BA.1 infected in human A549-hACE2-TMPRSS2 cells assessed as fold reduction in viral replication pre-incubated with compound followed by viral infection measured after 72 hrs by ELISA assay relative to SARS-CoV-2 WA1; type: functional, Severe acute respiratory syndrome coronavirus 2
SARS-CoV-2 [19] = test: Antiviral activity against SARS-CoV-2 Omicron BA.4 infected in human A549-hACE2-TMPRSS2 cells assessed as fold reduction in viral replication pre-incubated with compound followed by viral infection measured after 72 hrs by ELISA assay relative to SARS-CoV-2 WA1; type: functional, Severe acute respiratory syndrome coronavirus 2
SARS-CoV-2 [20] = test: Antiviral activity against SARS-CoV-2 Omicron BA.5 infected in human A549-hACE2-TMPRSS2 cells assessed as fold reduction in viral replication pre-incubated with compound followed by viral infection measured after 72 hrs by ELISA assay relative to SARS-CoV-2 WA1; type: functional, Severe acute respiratory syndrome coronavirus 2
SARS-CoV-2 [21] = test: Antiviral activity against SARS-CoV-2 Omicron XBB infected in human A549-hACE2-TMPRSS2 cells assessed as fold reduction in viral replication pre-incubated with compound followed by viral infection measured after 72 hrs by ELISA assay relative to SARS-CoV-2 WA1; type: functional, Severe acute respiratory syndrome coronavirus 2
SARS-CoV-2 [22] = test: Antiviral activity against SARS-CoV-2 Omicron BQ1.1 infected in human A549-hACE2-TMPRSS2 cells assessed as fold reduction in viral replication pre-incubated with compound followed by viral infection measured after 72 hrs by ELISA assay relative to SARS-CoV-2 WA1; type: functional, Severe acute respiratory syndrome coronavirus 2
PC-3 = test: Inhibition of mitochondrial respiration in human PC-3 cells at 100 uM incubated for 3 days; type: functional, cell-based; details: time 3.0 day

Structure (SMILES) | EC50 (SARS-CoV-2 [1]) | EC50 (SARS-CoV-2 [2]) | CC50 at 120 h [3] | EC50 (SARS-CoV-2 [4]) | EC50 (SARS-CoV-2 [6]) | CC50 at 120 h [7] | EC50 (SARS-CoV-2 [8]) | EC50 (SARS-CoV-2 [9]) | EC50 (SARS-CoV-2 [10]) | EC50 (SARS-CoV-2 [11]) | EC50 (SARS-CoV-2 [12]) | EC50 (SARS-CoV-2 [13]) | EC50 (SARS-CoV-2 [14]) | EC50 (SARS-CoV-2 [15]) | EC50 (SARS-CoV-2 [16]) | EC50 (SARS-CoV-2 [17]) | fold change (FC) (SARS-CoV-2 [18]) | fold change (FC) (SARS-CoV-2 [19]) | fold change (FC) (SARS-CoV-2 [20]) | fold change (FC) (SARS-CoV-2 [22]) | other results
CCC(CC)COC(=O)[C@H](C)N[P@](=O)(OC[C@H]1O[C@@](C#N)(c2ccc3c(N)ncnn23)[C@H](O)[C@@H]1O)Oc1ccccc1 | 70 nM | 80 nM | 1.7 µM | 60 nM | 40 nM | > 50 µM | 40 nM | 20 nM | 30 nM | 20 nM | 110 nM | 30 nM | 90 nM | 0.13 µM | 90 nM | 90 nM | 0.45 | 0.15 | 0.66 | 1.12 | CC50 ([5]; a549-ace2, 48 h): 22.9 µM; fold change (FC) (SARS-CoV-2 [21]): 1.07
N#C[C@@]1(c2ccc3c(N)ncnn23)O[C@H](CO)[C@@H](O)[C@H]1O [GS-441524] | 3260 nM | 4450 nM | 69 µM | 2490 nM | 3250 nM |  | 2660 nM | 1330 nM | 1790 nM | 1630 nM | 4800 nM | 2580 nM | 5400 nM | 7.78 µM | 6300 nM | 8770 nM |  |  |  | 1.33 | inhibition (PC-3): inactive; CC50 at 48 h [5]: > 50 µM
CC(C)C(=O)OC[C@H]1O[C@@](C#N)(c2ccc3c(N)ncnn23)[C@H](O)[C@@H]1O [OBELDESIVIR] | 740 nM | 1010 nM | > 50 µM | 1900 nM | 430 nM | > 50 µM | 650 nM | 710 nM | 440 nM | 400 nM | 1300 nM | 690 nM | 2450 nM | 3.13 µM | 2030 nM | 2440 nM | 0.32 | 0.26 | 0.83 | 1.33 | inhibition (PC-3): inactive; CC50 at 48 h [5]: > 50 µM; fold change (FC) (SARS-CoV-2 [21]): 1.1

— ChEMBL document CHEMBL5321279 (J Med Chem, 2023)
